According to US20230072683A1, “PYRIDO-PYRIMIDIN DERIVATIVES AND PHARMACEUTICAL COMPOSITION, FOR USE IN PREVENTING OR TREATING PI3 KINASE RELATED DISEASES, COMPRISING SAME AS ACTIVE INGREDIENT” (BORYUNG PHARMACEUTICAL CO., LTD, priority 2019, published 2023):

What was measured:
[1] = target: PI3K-δ (PI3K(p1108/p857) (h)) (Homo sapiens, UniProt O00329); assay: Evaluation of inhibitory activity against PI3K-δ (HTRF kinase assay); format: biochemical; conditions: for inhibition at 0.01 µM: compound concentration 0.01 μM, read-out: EXP_VALUE(% Inhibition) PI3K-δ 0.01 μM; for inhibition at 0.1 µM: compound concentration 0.1 μM, read-out: EXP_VALUE(% Inhibition) PI3K-δ 0.1 μM
PI3K-δ (PI3K(p1108/p857) (h)), sequence (O00329 whole entry, the tested form may be a part): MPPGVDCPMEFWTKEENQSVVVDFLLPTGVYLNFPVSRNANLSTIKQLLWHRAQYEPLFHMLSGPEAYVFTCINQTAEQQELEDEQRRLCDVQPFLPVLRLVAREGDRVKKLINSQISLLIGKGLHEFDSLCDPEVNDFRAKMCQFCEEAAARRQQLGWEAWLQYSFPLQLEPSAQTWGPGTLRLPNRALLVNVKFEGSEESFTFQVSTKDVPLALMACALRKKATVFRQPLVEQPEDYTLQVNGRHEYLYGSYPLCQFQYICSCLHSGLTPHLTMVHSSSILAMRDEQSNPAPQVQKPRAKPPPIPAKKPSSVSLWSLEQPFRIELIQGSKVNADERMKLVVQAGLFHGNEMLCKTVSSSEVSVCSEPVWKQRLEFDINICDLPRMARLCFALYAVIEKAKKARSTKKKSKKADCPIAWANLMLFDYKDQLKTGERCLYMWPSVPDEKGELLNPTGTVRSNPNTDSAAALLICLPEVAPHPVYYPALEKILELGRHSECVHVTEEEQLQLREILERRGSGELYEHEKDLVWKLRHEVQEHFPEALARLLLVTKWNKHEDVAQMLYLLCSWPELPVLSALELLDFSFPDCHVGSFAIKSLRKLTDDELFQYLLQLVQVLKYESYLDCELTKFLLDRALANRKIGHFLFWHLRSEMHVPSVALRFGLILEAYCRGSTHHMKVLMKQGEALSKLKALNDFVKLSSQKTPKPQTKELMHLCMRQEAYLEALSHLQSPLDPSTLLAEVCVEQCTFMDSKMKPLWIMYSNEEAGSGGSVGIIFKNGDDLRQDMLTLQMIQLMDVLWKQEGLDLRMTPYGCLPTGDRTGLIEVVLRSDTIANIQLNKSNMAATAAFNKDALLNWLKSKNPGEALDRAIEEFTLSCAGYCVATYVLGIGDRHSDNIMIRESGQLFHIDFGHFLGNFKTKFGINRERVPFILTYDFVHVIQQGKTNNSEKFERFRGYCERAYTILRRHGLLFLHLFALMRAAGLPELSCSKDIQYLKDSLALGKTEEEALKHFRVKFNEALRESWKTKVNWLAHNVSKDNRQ
PI3K-δ (PI3K(p1108/p857) (h)), sequence (P27986 whole entry partner, the tested form may be a part): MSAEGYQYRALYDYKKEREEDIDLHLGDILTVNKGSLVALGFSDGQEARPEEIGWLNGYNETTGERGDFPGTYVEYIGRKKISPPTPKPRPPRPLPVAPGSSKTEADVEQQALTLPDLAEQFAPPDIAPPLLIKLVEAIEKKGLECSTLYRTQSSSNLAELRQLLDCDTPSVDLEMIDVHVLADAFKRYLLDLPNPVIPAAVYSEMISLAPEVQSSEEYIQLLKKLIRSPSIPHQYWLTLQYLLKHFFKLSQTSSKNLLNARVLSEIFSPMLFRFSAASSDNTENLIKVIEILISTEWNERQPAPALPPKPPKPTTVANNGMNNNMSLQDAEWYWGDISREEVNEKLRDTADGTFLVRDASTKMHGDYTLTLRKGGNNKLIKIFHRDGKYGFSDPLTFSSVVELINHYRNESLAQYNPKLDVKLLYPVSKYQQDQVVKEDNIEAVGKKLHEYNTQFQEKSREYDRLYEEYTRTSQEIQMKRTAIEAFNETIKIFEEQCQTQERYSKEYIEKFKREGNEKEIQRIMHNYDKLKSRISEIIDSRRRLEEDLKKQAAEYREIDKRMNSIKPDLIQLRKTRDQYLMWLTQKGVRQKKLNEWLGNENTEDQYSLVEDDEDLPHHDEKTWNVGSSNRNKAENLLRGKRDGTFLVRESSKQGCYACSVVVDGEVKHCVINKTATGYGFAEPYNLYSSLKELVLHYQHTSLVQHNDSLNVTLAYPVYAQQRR
In short: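 HTRF read-out (665/620 nm ratio ×10000) used Eu-labelled anti-GST, GST-tagged GRP1 PH domain and streptavidin-allophycocyanin after EDTA/PIP3 stop.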

DNA-PK(h) = DNA-PK(h) (Homo sapiens, UniProt P78527); assay: Evaluation of inhibitory activity against DNA-PK (HTRF kinase assay, GST-cMyc-p53 substrate); format: biochemical; conditions: for inhibition at 0.01 µM: compound concentration 0.01 μM, read-out: EXP_VALUE(% Inhibition) DNA-PK(h) 0.01 μM; for inhibition at 0.1 µM: compound concentration 0.1 μM, read-out: EXP_VALUE(% Inhibition) DNA-PK(h) 0.1 μM
In short: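 p53 Ser15 phosphorylation by human DNA-PK was measured by time-resolved FRET ratio (665/620 nm ×10000) using Eu-labelled anti-phospho-Ser15 and d2 anti-GST antibodies. Substrate GST-cMyc-p53 at 50 μM; Mg/ATP-initiated, 30 min at room temperature, EDTA stop.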

Structure (SMILES): CCNc1cccc2c(Cl)c([C@H](C)Nc3ncnc4[nH]ccc(=O)c34)n(-c3ccccc3)c(=O)c12 [Example 325, (S)-4-((1-(4-chloro-8-(ethylamino)-1-oxo-2-phenyl-1,2-dihydroisoquinolin-3-yl)ethyl)amino)pyrido[2,3-d]pyrimidin-5(8H)-one]
- inhibition at 0.01 µM [1]: 22%
- inhibition at 0.1 µM [1]: 65%
- inhibition at 0.01 µM (DNA-PK(h)): 12%
- inhibition at 0.1 µM (DNA-PK(h)): 59%

Structure (SMILES): C[C@H](Nc1ncnc2[nH]ccc(=O)c12)c1c(Cl)c2cccc(N3CCN(c4ccccc4)CC3)c2c(=O)n1-c1ccccc1 [Example 326, (S)-4-((1-(4-chloro-1-oxo-2-phenyl-8-(4-phenylpiperazin-1-yl)-1,2-dihydroisoquinolin-3-yl)ethyl)amino)pyrido[2,3-d]pyrimidin-5(8H)-one]
- inhibition at 0.01 µM [1]: 17%
- inhibition at 0.1 µM [1]: 51%
- inhibition at 0.01 µM (DNA-PK(h)): -4%
- inhibition at 0.1 µM (DNA-PK(h)): 24%

Structure (SMILES): C[C@H](Nc1ncnc2[nH]ccc(=O)c12)c1c(Cl)c2cccc(N3C[C@]4(C)C[C@H]3CC(C)(C)C4)c2c(=O)n1-c1ccccc1 [Example 327, 4-(((S)-1-(4-chloro-1-oxo-2-phenyl-8-((1S,5R)-1,3,3-trimethyl-6-azabicyclo[3.2.1]octan-6-yl)-1,2-dihydroisoquinolin-3-yl)ethyl)amino)pyrido[2,3-d]pyrimidin-5(8H)-one]
- inhibition at 0.01 µM [1]: 4%
- inhibition at 0.1 µM [1]: 25%
- inhibition at 0.01 µM (DNA-PK(h)): -13%
- inhibition at 0.1 µM (DNA-PK(h)): 8%

Structure (SMILES): C[C@H](Nc1ncnc2[nH]ccc(=O)c12)c1c(Cl)c2cccc(N3CCC4CCCCC4C3)c2c(=O)n1-c1ccccc1 (stereo partly drawn) [Example 328, 4′-chloro-3′-((S)-1-((5-oxo-5,8-dihydropyrido[2,3-d]pyrimidin-4-yl)amino)ethyl)-2′-phenyl-3,4,4a,5,6,7,8,8a-octahydro-1H-[2,8′-biisoquinolin]-1′(2′H)-one]
- inhibition at 0.01 µM [1]: 17%
- inhibition at 0.1 µM [1]: 42%
- inhibition at 0.01 µM (DNA-PK(h)): 2%
- inhibition at 0.1 µM (DNA-PK(h)): 12%

Structure (SMILES): Cc1ccc2c(c1)CN(c1cccc3c(Cl)c([C@H](C)Nc4ncnc5[nH]ccc(=O)c45)n(-c4ccccc4)c(=O)c13)CC2 [Example 329, (S)-4′-chloro-7-methyl-3′-(1-((5-oxo-5,8-dihydropyrido[2,3-d]pyrimidin-4-yl)amino)ethyl)-2′-phenyl-3,4-dihydro-1H-[2,8′-biisoquinolin]-1′(2′H)-one]
- inhibition at 0.01 µM [1]: 19%
- inhibition at 0.1 µM [1]: 55%
- inhibition at 0.01 µM (DNA-PK(h)): 4%
- inhibition at 0.1 µM (DNA-PK(h)): 23%

Structure (SMILES): C[C@H](Nc1ncnc2[nH]ccc(=O)c12)c1c(Cl)c2cccc(N3CCc4ccsc4C3)c2c(=O)n1-c1ccccc1 [Example 330, (S)-4-((1-(4-chloro-8-(4,7-dihydrothieno[2,3-c]pyridin-6(5H)-yl)-1-oxo-2-phenyl-1,2-dihydroisoquinolin-3-yl)ethyl)amino)pyrido[2,3-d]pyrimidin-5(8H)-one]
- inhibition at 0.01 µM [1]: 30%
- inhibition at 0.1 µM [1]: 72%
- inhibition at 0.01 µM (DNA-PK(h)): 10%
- inhibition at 0.1 µM (DNA-PK(h)): 32%

Structure (SMILES): C[C@H](Nc1ncnc2[nH]ccc(=O)c12)c1c(Cl)c2cccc(NC3CCOC3)c2c(=O)n1-c1ccccc1 (stereo partly drawn) [Example 331, 4-(((1S)-1-(4-chloro-1-oxo-2-phenyl-8-((tetrahydrofuran-3-yl)amino)-1,2-dihydroisoquinolin-3-yl)ethyl)amino)pyrido[2,3-d]pyrimidin-5(8H)-one]
- inhibition at 0.01 µM [1]: 24%
- inhibition at 0.1 µM [1]: 74%
- inhibition at 0.01 µM (DNA-PK(h)): 31%
- inhibition at 0.1 µM (DNA-PK(h)): 76%

Structure (SMILES): C[C@H](Nc1ncnc2[nH]ccc(=O)c12)c1c(Cl)c2cccc(NC3CCOCC3)c2c(=O)n1-c1ccccc1 [Example 332, (S)-4-((1-(4-chloro-1-oxo-2-phenyl-8-((tetrahydro-2H-pyran-4-yl)amino)-1,2-dihydroisoquinolin-3-yl)ethyl)amino)pyrido[2,3-d]pyrimidin-5(8H)-one]
- inhibition at 0.01 µM [1]: 30%
- inhibition at 0.1 µM [1]: 75%
- inhibition at 0.01 µM (DNA-PK(h)): -1%
- inhibition at 0.1 µM (DNA-PK(h)): 33%

Structure (SMILES): C[C@H](Nc1ncnc2[nH]ccc(=O)c12)c1c(Cl)c2cccc(N3CCN(c4ccccn4)CC3)c2c(=O)n1-c1ccccc1 [Example 333, (S)-4-((1-(4-chloro-1-oxo-2-phenyl-8-(4-(pyridin-2-yl)piperazin-1-yl)-1,2-dihydroisoquinolin-3-yl)ethyl)amino)pyrido[2,3-d]pyrimidin-5(8H)-one]
- inhibition at 0.01 µM [1]: 46%
- inhibition at 0.1 µM [1]: 79%
- inhibition at 0.01 µM (DNA-PK(h)): 17%
- inhibition at 0.1 µM (DNA-PK(h)): 62%

Structure (SMILES): C[C@H](Nc1ncnc2[nH]ccc(=O)c12)c1c(Cl)c2cccc(N(C)Cc3ccc4ccccc4c3)c2c(=O)n1-c1ccccc1 [Example 334, (S)-4-((1-(4-chloro-8-(methyl(naphthalen-2-ylmethyl)amino)-1-oxo-2-phenyl-1,2-dihydroisoquinolin-3-yl)ethyl)amino)pyrido[2,3-d]pyrimidin-5(8H)-one]
- inhibition at 0.01 µM [1]: 9%
- inhibition at 0.1 µM [1]: 49%
- inhibition at 0.01 µM (DNA-PK(h)): 10%
- inhibition at 0.1 µM (DNA-PK(h)): 27%

Structure (SMILES): C[C@H](Nc1ncnc2[nH]ccc(=O)c12)c1c(Cl)c2cccc(NCCc3ccc(Cl)cc3)c2c(=O)n1-c1ccccc1 [Example 335, (S)-4-((1-(4-chloro-8-((4-chlorophenethyl)amino)-1-oxo-2-phenyl-1,2-dihydroisoquinolin-3-yl)ethyl)amino)pyrido[2,3-d]pyrimidin-5(8H)-one]
- inhibition at 0.01 µM [1]: 31%
- inhibition at 0.1 µM [1]: 95%
- inhibition at 0.01 µM (DNA-PK(h)): 13%
- inhibition at 0.1 µM (DNA-PK(h)): 52%

Structure (SMILES): C[C@H](Nc1ncnc2[nH]ccc(=O)c12)c1c(Cl)c2cccc(N3CCC(c4ccccc4)CC3)c2c(=O)n1-c1ccccc1 [Example 336, (S)-4-((1-(4-chloro-1-oxo-2-phenyl-8-(4-phenylpiperidin-1-yl)-1,2-dihydroisoquinolin-3-yl)ethyl)amino)pyrido[2,3-d]pyrimidin-5(8H)-one]
- inhibition at 0.01 µM [1]: 6%
- inhibition at 0.1 µM [1]: 19%
- inhibition at 0.01 µM (DNA-PK(h)): 7%
- inhibition at 0.1 µM (DNA-PK(h)): 14%

Structure (SMILES): C[C@H](Nc1ncnc2[nH]ccc(=O)c12)c1c(Cl)c2cccc(N3CCC[C@H]3C(N)=O)c2c(=O)n1-c1ccccc1 [Example 337, (S)-1-(4-chloro-1-oxo-3-((S)-1-((5-oxo-5,8-dihydropyrido[2,3-d]pyrimidin-4-yl)amino)ethyl)-2-phenyl-1,2-dihydroisoquinolin-8-yl) pyrrolidine-2-carboxamide]
- inhibition at 0.01 µM [1]: 27%
- inhibition at 0.1 µM [1]: 70%
- inhibition at 0.01 µM (DNA-PK(h)): 13%
- inhibition at 0.1 µM (DNA-PK(h)): 63%

Structure (SMILES): C[C@H](Nc1ncnc2[nH]ccc(=O)c12)c1c(Cl)c2cccc(N3CCC[C@H]3CN3CCCC3)c2c(=O)n1-c1ccccc1 [Example 338, 4-(((S)-1-(4-chloro-1-oxo-2-phenyl-8-((S)-2-(pyrrolidin-1-ylmethyl)pyrrolidin-1-yl)-1,2-dihydroisoquinolin-3-yl)ethyl)amino)pyrido[2,3-d]pyrimidin-5(8H)-one]
- inhibition at 0.01 µM [1]: 3%
- inhibition at 0.1 µM [1]: 19%
- inhibition at 0.01 µM (DNA-PK(h)): -2%
- inhibition at 0.1 µM (DNA-PK(h)): 35%

Structure (SMILES): C[C@H](Nc1ncnc2[nH]ccc(=O)c12)c1c(Cl)c2cccc(N3CCCC3O)c2c(=O)n1-c1ccccc1 (stereo partly drawn) [Example 339, 4-(((1S)-1-(4-chloro-8-(2-hydroxypyrrolidin-1-yl)-1-oxo-2-phenyl-1,2-dihydroisoquinolin-3-yl)ethyl)amino)pyrido[2,3-d]pyrimidin-5(8H)-one]
- inhibition at 0.01 µM [1]: 69%
- inhibition at 0.1 µM [1]: 20%
- inhibition at 0.01 µM (DNA-PK(h)): 8%
- inhibition at 0.1 µM (DNA-PK(h)): 52%

Structure (SMILES): C[C@H](Nc1ncnc2[nH]ccc(=O)c12)c1c(Cl)c2cccc(N3Cc4ccccc4C3)c2c(=O)n1-c1ccccc1 [Example 340, (S)-4-((1-(4-chloro-8-(isoindolin-2-yl)-1-oxo-2-phenyl-1,2-dihydroisoquinolin-3-yl)ethyl)amino)pyrido[2,3-d]pyrimidin-5(8H)-one]
- inhibition at 0.01 µM [1]: 43%
- inhibition at 0.1 µM [1]: 91%
- inhibition at 0.01 µM (DNA-PK(h)): 21%
- inhibition at 0.1 µM (DNA-PK(h)): 67%

Structure (SMILES): C[C@H](Nc1ncnc2[nH]ccc(=O)c12)c1c(Cl)c2cccc(N3CCc4ccccc43)c2c(=O)n1-c1ccccc1 [Example 341, (S)-4-((1-(4-chloro-8-(indolin-1-yl)-1-oxo-2-phenyl-1,2-dihydroisoquinolin-3-yl)ethyl)amino)pyrido[2,3-d]pyrimidin-5(8H)-one]
- inhibition at 0.01 µM [1]: 62%
- inhibition at 0.1 µM [1]: 91%
- inhibition at 0.01 µM (DNA-PK(h)): 13%
- inhibition at 0.1 µM (DNA-PK(h)): 56%

Structure (SMILES): C[C@H](Nc1ncnc2[nH]ccc(=O)c12)c1c(Cl)c2cccc(N3CC4CCCC4C3)c2c(=O)n1-c1ccccc1 (stereo partly drawn) [Example 342, 4-(((1S)-1-(4-chloro-8-(hexahydrocyclopenta[c]pyrrol-2 (1H)-yl)-1-oxo-2-phenyl-1,2-dihydroisoquinolin-3-yl)ethyl)amino)pyrido[2,3-d]pyrimidin-5(8H)-one]
- inhibition at 0.01 µM [1]: 15%
- inhibition at 0.1 µM [1]: 45%
- inhibition at 0.01 µM (DNA-PK(h)): 9%
- inhibition at 0.1 µM (DNA-PK(h)): 58%

Structure (SMILES): C[C@H](Nc1ncnc2[nH]ccc(=O)c12)c1c(Cl)c2cccc(Nc3ccccc3)c2c(=O)n1-c1ccccc1 [Example 343, (S)-4-((1-(4-chloro-1-oxo-2-phenyl-8-(phenylamino)-1,2-dihydroisoquinolin-3-yl)ethyl)amino)pyrido[2,3-d]pyrimidin-5(8H)-one]
- inhibition at 0.01 µM [1]: 8%
- inhibition at 0.01 µM (DNA-PK(h)): -1%

Structure (SMILES): C[C@H](Nc1ncnc2[nH]ccc(=O)c12)c1c(Cl)c2cccc(Nc3ccc(F)cc3)c2c(=O)n1-c1ccccc1 [Example 344, (S)-4-((1-(4-chloro-8-((4-fluorophenyl)amino)-1-oxo-2-phenyl-1,2-dihydroisoquinolin-3-yl)ethyl)amino)pyrido[2,3-d]pyrimidin-5(8H)-one]
- inhibition at 0.01 µM [1]: 13%
- inhibition at 0.01 µM (DNA-PK(h)): -7%
